Assay results reported in patent publication US7135466B2 (Kirin Beer Kabushiki Kaisha, priority 1999, dated 2006).

Key:
c-kit = target: T1, c-kit (Homo sapiens, UniProt P10721); experiment: Inhibitory activity against c-kit autophosphorylation (MO7e cells, h-SCF); type: cell-based; details: for IC50: MO7e cells, h-SCF 50 ng/ml, read-out: c-kit IC50; for inhibition at 1 µM: Mo7e, figure in parentheses in −( ), at 1000 nM
T1 construct: MO7e (human megakaryocytic leukemia cell line) which had been arrested for 20 hr; endogenous in cells; host or cells: MO7e human megakaryocytic leukemia cell line
T1 sequence (P10721 26-976): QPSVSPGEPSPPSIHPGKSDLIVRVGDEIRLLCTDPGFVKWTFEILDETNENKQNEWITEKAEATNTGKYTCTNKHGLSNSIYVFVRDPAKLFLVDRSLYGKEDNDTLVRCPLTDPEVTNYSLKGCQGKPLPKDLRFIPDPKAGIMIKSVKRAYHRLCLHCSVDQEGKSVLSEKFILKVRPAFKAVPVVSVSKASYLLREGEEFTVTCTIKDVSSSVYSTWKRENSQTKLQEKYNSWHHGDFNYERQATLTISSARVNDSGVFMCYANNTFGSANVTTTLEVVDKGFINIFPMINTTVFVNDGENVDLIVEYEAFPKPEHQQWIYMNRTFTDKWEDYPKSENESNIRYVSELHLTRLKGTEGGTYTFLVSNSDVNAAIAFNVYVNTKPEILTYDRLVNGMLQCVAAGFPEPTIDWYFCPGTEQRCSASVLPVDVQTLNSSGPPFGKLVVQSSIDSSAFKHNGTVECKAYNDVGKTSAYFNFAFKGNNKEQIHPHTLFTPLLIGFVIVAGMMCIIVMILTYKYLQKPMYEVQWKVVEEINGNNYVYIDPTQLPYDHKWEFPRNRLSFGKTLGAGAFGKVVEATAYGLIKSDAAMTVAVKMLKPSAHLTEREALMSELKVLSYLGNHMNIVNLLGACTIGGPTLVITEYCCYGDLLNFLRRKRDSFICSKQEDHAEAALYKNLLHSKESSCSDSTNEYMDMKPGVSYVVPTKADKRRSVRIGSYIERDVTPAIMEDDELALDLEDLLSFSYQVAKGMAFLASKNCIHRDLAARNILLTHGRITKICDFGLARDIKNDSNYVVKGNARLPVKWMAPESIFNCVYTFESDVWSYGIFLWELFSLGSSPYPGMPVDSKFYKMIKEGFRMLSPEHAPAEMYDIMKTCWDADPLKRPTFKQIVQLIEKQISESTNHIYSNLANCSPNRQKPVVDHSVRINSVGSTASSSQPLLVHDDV
Procedure, shortened: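 MO7e human megakaryocytic leukemia cells, arrested 20 hr, treated with compound 1 hr, then stimulated with 50 ng/ml h-SCF for 5 min and lysed. Lysates captured on immobilized anti-phosphotyrosine antibody, detected with anti-c-kit primary and HRP secondary antibody; absorbance at 450 nm.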

PDGF-Ra = target: T2, PDGF-Ra (Homo sapiens, UniProt P16234); experiment: Inhibitory activity against PDGF-Ra phosphorylation by PDGF-AA stimulation using G292; type: cell-based; details: for IC50: Pharmacological Test Example 1, > means inhibition at indicated concentration not more than 50%, < and << not less than 50%, read-out: PDGF (E) IC50; for inhibition at 0.1 µM: G292, figure in parentheses in >100( ), at 100 nM, read-out: PDGF (E) inhibition (%) at 100 nM
T2 construct: host or cells: G-292 human osteosarcoma cells
T2 sequence (P16234 24-1089): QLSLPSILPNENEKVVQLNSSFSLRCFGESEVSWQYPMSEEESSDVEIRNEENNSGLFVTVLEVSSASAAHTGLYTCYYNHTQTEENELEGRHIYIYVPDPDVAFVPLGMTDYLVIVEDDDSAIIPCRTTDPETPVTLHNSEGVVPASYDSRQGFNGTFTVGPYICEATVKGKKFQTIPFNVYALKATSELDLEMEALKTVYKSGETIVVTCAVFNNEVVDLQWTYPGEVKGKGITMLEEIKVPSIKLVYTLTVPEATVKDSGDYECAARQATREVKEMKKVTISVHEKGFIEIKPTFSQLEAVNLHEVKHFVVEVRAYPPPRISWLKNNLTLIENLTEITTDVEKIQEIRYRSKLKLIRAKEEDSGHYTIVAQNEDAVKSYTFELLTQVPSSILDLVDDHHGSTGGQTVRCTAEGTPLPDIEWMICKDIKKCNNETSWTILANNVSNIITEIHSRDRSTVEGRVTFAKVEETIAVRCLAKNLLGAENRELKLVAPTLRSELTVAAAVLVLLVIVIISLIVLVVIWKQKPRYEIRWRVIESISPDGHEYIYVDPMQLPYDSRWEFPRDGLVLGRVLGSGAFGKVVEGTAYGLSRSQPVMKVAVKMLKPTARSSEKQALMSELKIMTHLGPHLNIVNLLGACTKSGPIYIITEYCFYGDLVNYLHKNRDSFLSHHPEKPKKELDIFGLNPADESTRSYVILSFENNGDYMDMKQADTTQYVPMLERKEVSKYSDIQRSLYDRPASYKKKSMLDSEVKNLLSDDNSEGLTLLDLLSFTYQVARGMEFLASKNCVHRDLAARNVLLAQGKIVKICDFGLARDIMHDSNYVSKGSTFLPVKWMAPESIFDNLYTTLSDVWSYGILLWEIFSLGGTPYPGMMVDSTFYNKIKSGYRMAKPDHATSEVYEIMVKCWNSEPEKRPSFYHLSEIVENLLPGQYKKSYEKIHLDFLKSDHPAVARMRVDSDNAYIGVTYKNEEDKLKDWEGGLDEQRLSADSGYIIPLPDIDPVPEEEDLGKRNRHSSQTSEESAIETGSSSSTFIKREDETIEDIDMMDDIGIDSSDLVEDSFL
Procedure, shortened: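 In G-292 osteosarcoma cells kept overnight in 0.1% FBS, compound exposure (1 hr, 37 °C) preceded PDGF-AA stimulation at 50 ng/ml for 5 min; receptor phosphotyrosine was then detected by PY-20 capture ELISA.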

| SMILES | IC50 (c-kit) | IC50 (PDGF-Ra) | inhibition at 1 µM (c-kit) | inhibition at 0.1 µM (PDGF-Ra) |
| --- | --- | --- | --- | --- |
| COc1cc2ncnc(Oc3ccc(NC(=O)OC4CCCCC4)cc3)c2cc1OC [Example 312, Cyclohexyl N-{4-[(6,7-dimethoxy-4-quinazolinyl)oxy]phenyl}carbamate] | 29 nM | < 10 nM |  |  |
| COc1cc2ncnc(Oc3ccc(NC(=O)OC4CCCCC4)c(Cl)c3)c2cc1OC [Example 313] | 330 nM | < 10 nM |  |  |
| CCCOC(=O)Nc1ccc(Oc2ncnc3cc(OC)c(OC)cc23)cc1 [Example 314, Propyl N-{4-[(6,7-dimethoxy-4-quinazolinyl)oxy]phenyl}carbamate] | 32 nM | 44 nM |  |  |
| COc1ccccc1COC(=O)Nc1ccc(Oc2ncnc3cc(OC)c(OC)cc23)cc1 [Example 315, 2-Methoxybenzyl N-{4-[(6,7-dimethoxy-4-quinazolinyl)oxy]phenyl}carbamate] | 82 nM | < 10 nM |  |  |
| COc1ccccc1COC(=O)Nc1ccc(Oc2ncnc3cc(OC)c(OC)cc23)cc1Cl [Example 316, 2-Methoxybenzyl N-{2-chloro-4-[(6,7-dimethoxy-4-quinazolinyl)oxy]phenyl}carbamate] |  | 10 nM | 40% |  |
| COc1cc2ncnc(Oc3ccc(NC(=O)OCc4ccccc4Cl)cc3)c2cc1OC [Example 317, 2-Chlorobenzyl N-{4-[(6,7-dimethoxy-4-quinazolinyl)oxy]phenyl}carbamate] | 136 nM | < 10 nM |  |  |
| COc1cc2ncnc(Oc3ccc(NC(=O)OCc4ccccc4Cl)c(Cl)c3)c2cc1OC [Example 318, 2-Chlorobenzyl N-{2-chloro-4-[(6,7-dimethoxy-4-quinazolinyl)oxy]phenyl}carbamate] | 418 nM | 10 nM |  |  |
| COc1cc2ncnc(Oc3ccc(NC(=O)OCc4ccccc4C)cc3)c2cc1OC [Example 319, 2-Methylbenzyl N-{4-[(6,7-dimethoxy-4-quinazolinyl)oxy]phenyl}carbamate] | 98 nM | < 10 nM |  |  |
| COc1cc2ncnc(Oc3ccc(NC(=O)OCc4ccccc4C)c(Cl)c3)c2cc1OC [Example 320, 2-Methylbenzyl N-{2-chloro-4-[(6,7-dimethoxy-4-quinazolinyl)oxy]phenyl}carbamate] | 596 nM | < 10 nM |  |  |
| CCCCOC(=O)Nc1ccc(Oc2ccnc3cc(OC)c(OC)cc23)cc1 [Example 321, Butyl N-{4-[(6,7-dimethoxy-4-quinolyl)oxy]phenyl}carbamate] | 37 nM | < 10 nM |  |  |
| CCCCOC(=O)Nc1cc(C)c(Oc2ccnc3cc(OC)c(OC)cc23)cc1C [Example 322, Butyl N-{4-[(6,7-dimethoxy-4-quinolyl)oxy]-2,5-dimethylphenyl}carbamate] | 60 nM | < 10 nM |  |  |
| CCCCOC(=O)Nc1ccc(Oc2ccnc3cc(OC)c(OC)cc23)c(C)c1C [Example 323, Butyl N-{4-[(6,7-dimethoxy-4-quinolyl)oxy]-2,3-dimethylphenyl}carbamate] | < 30 nM | < 10 nM |  |  |

Next, values leading:

| IC50 (c-kit) | IC50 (PDGF-Ra) | inhibition at 1 µM (c-kit) | inhibition at 0.1 µM (PDGF-Ra) | SMILES |
| --- | --- | --- | --- | --- |
| 64 nM | 12 nM |  |  | COc1cc2nccc(Oc3ccc(NC(=O)OC(C)C)cc3)c2cc1OC [Example 324, Isopropyl N-{4-[(6,7-dimethoxy-4-quinolyl)oxy]phenyl}carbamate] |
| 46 nM | < 10 nM |  |  | COc1cc2nccc(Oc3ccc(NC(=O)OC(C)C)c(C)c3C)c2cc1OC [Example 325, Isopropyl N-{4-[(6,7-dimethoxy-4-quinolyl)oxy]-2,3-dimethylphenyl}carbamate] |
|  | > 100 nM | 18% | 31% | CCCCCCCCCCCCCCCCCCOC(=O)Nc1ccc(Oc2ccnc3cc(OC)c(OC)cc23)cc1 [Example 326, Octadecyl N-{4-[(6,7-dimethoxy-4-quinolyl)oxy]phenyl}carbamate] |
|  | > 100 nM | 6% | 30% | CCCCCCCCCCCCCCCCCCOC(=O)Nc1cc(C)c(Oc2ccnc3cc(OC)c(OC)cc23)cc1C [Example 327, Octadecyl N-{4-[(6,7-dimethoxy-4-quinolyl)oxy]-2,5-dimethylphenyl}carbamate] |
|  | > 100 nM | 10% | 22% | CCCCCCCCCCCCCCCCCCOC(=O)Nc1ccc(Oc2ccnc3cc(OC)c(OC)cc23)c(C)c1C [Example 328, Octadecyl N-{4-[(6,7-dimethoxy-4-quinolyl)oxy]-2,3-dimethylphenyl}carbamate] |
| 253 nM | < 10 nM |  |  | CCCCC(CC)OC(=O)Nc1ccc(Oc2ccnc3cc(OC)c(OC)cc23)cc1 (centres unmarked) [Example 329, 1-Ethylpentyl N-{4-[(6,7-dimethoxy-4-quinolyl)oxy]phenyl}carbamate] |
| 467 nM | 12 nM |  |  | CCCCC(CC)OC(=O)Nc1cc(C)c(Oc2ccnc3cc(OC)c(OC)cc23)cc1C (centres unmarked) [Example 330, 1-Ethylpentyl N-{4-[(6,7-dimethoxy-4-quinolyl)oxy]-2,5-dimethylphenyl}carbamate] |
| 377 nM | < 10 nM |  |  | CCCCC(CC)OC(=O)Nc1ccc(Oc2ccnc3cc(OC)c(OC)cc23)c(C)c1C (centres unmarked) [Example 331, 1-Ethylpentyl N-{4-[(6,7-dimethoxy-4-quinolyl)oxy]-2,3-dimethylphenyl}carbamate] |
| 259 nM | < 10 nM |  |  | CCCC(CCC)OC(=O)Nc1ccc(Oc2ccnc3cc(OC)c(OC)cc23)cc1 [Example 332, 1-Propylbutyl N-{4-[(6,7-dimethoxy-4-quinolyl)oxy]phenyl}carbamate] |
| 712 nM | 12 nM |  |  | CCCC(CCC)OC(=O)Nc1cc(C)c(Oc2ccnc3cc(OC)c(OC)cc23)cc1C [Example 333, 1-Propylbutyl N-{4-[(6,7-dimethoxy-4-quinolyl)oxy]-2,5-dimethylphenyl}carbamate] |
| 484 nM | < 10 nM |  |  | CCCC(CCC)OC(=O)Nc1ccc(Oc2ccnc3cc(OC)c(OC)cc23)c(C)c1C [Example 334, 1-Propylbutyl N-{4-[(6,7-dimethoxy-4-quinolyl)oxy]-2,3-dimethylphenyl}carbamate] |
| < 30 nM | < 10 nM |  |  | CCCCCCOC(=O)Nc1ccc(Oc2ncnc3cc(OC)c(OC)cc23)cc1 [Example 335, Hexyl N-{4-[(6,7-dimethoxy-4-quinazolinyl)oxy]phenyl}carbamate] |
| 109 nM | 14 nM |  |  | CCCCCCOC(=O)Nc1ccc(Oc2ncnc3cc(OC)c(OC)cc23)cc1Cl [Example 336, Hexyl N-{2-chloro-4-[(6,7-dimethoxy-4-quinazolinyl)oxy]phenyl}carbamate] |
| 198 nM | < 10 nM |  |  | CCCC(CC)OC(=O)Nc1ccc(Oc2ncnc3cc(OC)c(OC)cc23)cc1 (centres unmarked) [Example 337, 1-Ethylbutyl N-{4-[(6,7-dimethoxy-4-quinazolinyl)oxy]phenyl}carbamate] |
| 956 nM | 25 nM |  |  | CCCC(CC)OC(=O)Nc1ccc(Oc2ncnc3cc(OC)c(OC)cc23)cc1Cl (centres unmarked) [Example 338, 1-Ethylbutyl N-{2-chloro-4-[(6,7-dimethoxy-4-quinazolinyl)oxy]phenyl}carbamate] |
| 197 nM | 38 nM |  |  | COc1cc2ncnc(Oc3ccc(NC(=O)OCCc4ccccc4)c(Cl)c3)c2cc1OC [Example 339, Phenethyl N-{2-chloro-4-[(6,7-dimethoxy-4-quinazolinyl)oxy]phenyl}carbamate] |
